Source: publication PMC12865133, “Macrocyclic Molecular Glues for the 14‐3‐3/ChREBP Interaction: Affinity and Cooperativity in an Inverse Relationship” (Angewandte Chemie (International Ed. in English), 2025)

Legend:
14-3-3/ChREBP complex = target: T1, 14-3-3/ChREBP complex (Homo sapiens, UniProt P31946+Q9NP71); assay: 2D FA titrations fitted to thermodynamic cooperativity model; conditions: for α1 / α / Kd: 2D FA model fit; for α1: dimeric 14-3-3 model; for Kd: KDI; for cooperativity (α) factor: 2D FA, 14-3-3β titrated to FITC-labeled MG with varying ChREBP peptide, KD^II fixed 1.5 µM, mean of n = 2
T1 sequence (P31946 1-246): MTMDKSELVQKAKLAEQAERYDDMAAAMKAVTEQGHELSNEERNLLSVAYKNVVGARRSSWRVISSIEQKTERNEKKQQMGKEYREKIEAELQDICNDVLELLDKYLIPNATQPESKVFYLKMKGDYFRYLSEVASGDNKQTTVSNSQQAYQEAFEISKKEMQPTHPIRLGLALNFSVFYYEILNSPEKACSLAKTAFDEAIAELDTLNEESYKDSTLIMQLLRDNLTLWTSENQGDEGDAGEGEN
T1 sequence (Q9NP71 117-142 partner limits assumed): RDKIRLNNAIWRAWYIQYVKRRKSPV

14-3-3γ [1] = target: T2, 14-3-3γ (Homo sapiens, UniProt P61981); assay: Surface plasmon resonance, Twinstrep-tagged 14-3-3γ captured on StrepTactinXT chip; conditions: for KD, affinity fit: SPR steady-state 1:1 fit; for kon: pH 7.4, read-out: ka, kinetic fit
T2 sequence (P61981 1-247): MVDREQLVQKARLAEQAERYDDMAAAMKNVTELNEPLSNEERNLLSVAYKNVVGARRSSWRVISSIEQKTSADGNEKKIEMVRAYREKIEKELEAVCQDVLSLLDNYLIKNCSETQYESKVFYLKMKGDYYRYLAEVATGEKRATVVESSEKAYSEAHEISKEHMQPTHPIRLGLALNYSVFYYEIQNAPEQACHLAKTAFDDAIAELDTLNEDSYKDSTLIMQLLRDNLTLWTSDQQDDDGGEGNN
Method: The SPR experiments were performed at 25 °C using a Biacore X100 (Cytiva) and a 200 nm Strep-Tactin XT derivatized linear polycarboxylate hydrogel chip, medium charge density (XanTec Bioanalytics). All proteins and peptides were dissolved in fresh running buffer prepared with ultrapure water and filtered through a 0.2 μm filter (10 mM HEPES pH 7.4, 200 mM NaCl, 50 μM EDTA, 0.005% P20). First the surface was conditioned with a 1 min injection of 3 M Guanidine HCl. The Biacore X100 was primed with running buffer. […] Flow cell 1 was left blank as a reference surface. […] Between cycles of one multi-cycle measurement, no regeneration step was performed due to the complete dissociation of the analyte. […] The data collection rate of the instrument is 1 datapoint/sec. […] All parameters were fitted using global fitting, including the Rmax, because a single immobilization was used for all analyte concentrations. The RI was set constant at 0 RU. Next to kinetic fitting, the affinity fit was made using a 1:1 binding model by plotting the response (RU) at steady state over the analyte concentration (Fig. S2).

14-3-3γ [2] = target: T2, 14-3-3γ; assay: Isothermal titration calorimetry, peptide titrated to 14-3-3γ; type: binding; conditions: ITC, 200 μM peptide titrated to 20 μM 14-3-3γ, mean ± SD, n=3; for ΔS: 25 mM HEPES pH 8.0, 100 mM NaCl, 10 mM MgCl2, 500 µM TCEP, 25 °C; for ΔG / ΔH: pH 8.0, 25 °C
Method: Final dialysis fluid from protein expression was frozen as 2 mL aliquots to serve as ITC buffer (25 mM HEPES pH 8.0, 100 mM NaCl, 10 mM MgCl2, 500 µM TCEP). 14-3-3γ and peptide were dissolved and diluted in this buffer to 20 μM and 200 μM, respectively. Samples were degassed for 10 min prior to measurement at 450 mmHg. The reference cell was filled with 300 µL degassed MilliQ and the sample cell was filled with 300 µL of peptide or protein mixture. Syringe was loaded with at least 200 µL protein or peptide sample. Measurements were performed on an Affinity ITC LV (TA instruments), with injection size set to 2 µL, stirring speed of 125 rpm and temperature at 25 ̊C. The baseline was automatically adjusted with NITPIC, analysis of data was done in SEDPHAT, and images were produced with GUSSI software. Data and errors represent mean ± SD, n=3 replicates.

14-3-3β = target: T3, 14-3-3β (Homo sapiens, UniProt P31946); assay: FA titration of 14-3-3β to FITC-labeled macrocycle (EC50 used for selectivity assay); type: binding; conditions: 14-3-3β concentration equal to/around EC50 for FITC-labeled macrocycle (10 nM)
T3 construct: The full-length human 14-3-3β and γ proteins; made in house; host or cells: Escherichia coli BL21(DE3)
T3 sequence (P31946 1-246): T1 sequence (P31946 1-246)
Method: For the 2D titrations, 14-3-3β was titrated in a 2-fold dilution series (starting at 250 µM) to a mix of fluorescein-labeled macrocycle (5 nM) against varying fixed concentrations of ChREBP (2-fold dilution starting from 20 µM (replicate 1) or 10 µM (replicate 2)).
Dilution series were made in a polystyrene (non-binding) low-volume Corning Black Round Bottom 384-well plates (Corning 4514 or 4511). […] Wells containing 5 nm FITC-macrocycle were used to set as G-factor. All data were analyzed using Origin2023b and fitted using a four-parameter logistic model. Each measurement was performed in three independent experiments.

[3] = system: 14-3-3β/macrocycle complex; assay: FA selectivity assay, acetylated 14-3-3 client peptides titrated to 14-3-3β/macrocycle complex; type: binding, human; conditions: acetylated client peptide titrated from 100 μM to 14-3-3β (at EC50) and FITC-labeled macrocycle (10 nM), n = 3
14-3-3γ [4] = target: T2, 14-3-3γ; assay: Fluorescence Anisotropy protein titration of 14-3-3γ to FITC-labeled macrocycles; type: binding; conditions: FA, 14-3-3γ titrated (2-fold from 250 µM) to FITC-labeled peptide (10 nM in Fig. 2a, 5 nM in method), 10 mM HEPES pH 7.4, 150 mM NaCl, 0.1% Tween20, 0.1% BSA, rt, mean ± SD, n = 3
Method: Wells containing 5 nm FITC-macrocycle were used to set as G-factor. All data were analyzed using Origin2023b and fitted using a four-parameter logistic model. Each measurement was performed in three independent experiments.

[5] = replicate 1 (ChREBP from 20 μM)
[6] = replicate 2 (ChREBP from 10 μM)
[7] = SPR, 1:1 model, 25 °C, 10 mM HEPES pH 7.4, 200 mM NaCl, replicate 1
[8] = SPR, 1:1 model, 25 °C, pH 7.4, average ± SD, n=2, SD
[9] = SPR, 1:1 model, 25 °C, pH 7.4, replicate 1
[10] = SPR, 1:1 model, 25 °C, pH 7.4, replicate 2

NCCCC[C@@H](C(=O)NCCC(=O)N[C@@H](CCCCNC(=S)Nc1ccc2c(c1)C(=O)OC21c2ccc(O)cc2Oc2cc(O)ccc21)C(N)=O)N1CCc2cn(nn2)-c2ccc(cc2)C[C@H](NC(=O)[C@@H](N)COP(=O)(O)O)C(=O)N[C@@H](CO)CC(=O)NCCC(=O)N[C@@H](Cc2ccc([N+](=O)[O-])cc2)C1=O [Macrocycle 2]
α1 (14-3-3/ChREBP complex; replicate 1): 18.8 | α1 (14-3-3/ChREBP complex; replicate 2): 8.3 | α (14-3-3/ChREBP complex; [5]): 46 | α (14-3-3/ChREBP complex; [6]): 61

NCCCC[C@@H](C(N)=O)N1CCCCc2cn(nn2)-c2ccc(cc2)C[C@H](NC(=O)[C@@H](N)COP(=O)(O)O)C(=O)N[C@@H](CO)CC(=O)NCCC(=O)N[C@@H](Cc2ccc([N+](=O)[O-])cc2)C1=O [Macrocycle 4]
α1 (14-3-3/ChREBP complex; replicate 1): 11.8 | α1 (14-3-3/ChREBP complex; replicate 2): 13.5 | α (14-3-3/ChREBP complex; [5]): 42.5 | α (14-3-3/ChREBP complex; [6]): 41.3 | Kd (14-3-3/ChREBP complex; [5]): 5000 nM | Kd (14-3-3/ChREBP complex; [6]): 5000 nM | KD, affinity fit (14-3-3γ [1]; 25 °C, pH 7.4, replicate 1): 1180 nM | KD, affinity fit (14-3-3γ [1]; 25 °C, pH 7.4, replicate 2): 1130 nM | ka, kinetic fit (14-3-3γ [1]; [7]): 282000 M⁻¹ s⁻¹ | kd, kinetic fit (14-3-3γ [1]; [8]): 0.31 ± 0.01 s⁻¹ | KD, kinetic fit (14-3-3γ [1]; [9]): 1140 nM | kd, kinetic fit (14-3-3γ [1]; [9]): 0.3198 s⁻¹ | KD, kinetic fit (14-3-3γ [1]; [10]): 1030 nM | ka, kinetic fit (14-3-3γ [1]; [10]): 290000 M⁻¹ s⁻¹ | kd, kinetic fit (14-3-3γ [1]; [10]): 0.2988 s⁻¹ | association rate (k on) fold increase compared to pepD (14-3-3γ [1]; SPR, 14-3-3γ): 3.5 fold | kon (14-3-3γ [1]; SD): 290000 M⁻¹ s⁻¹ | ΔS (14-3-3γ [2]): 2.9 ± 0.78 cal/(mol·K) | ΔG (14-3-3γ [2]): -8.15 ± 0.10 kcal/mol | ΔH (14-3-3γ [2]): -7.4 ± 0.44 kcal/mol

NCCCC[C@@H](C(=O)NCCC(=O)N[C@@H](CCCCNC(=S)Nc1ccc2c(c1)C(=O)OC21c2ccc(O)cc2Oc2cc(O)ccc21)C(N)=O)N1Cc2cn(nn2)-c2ccc(cc2)C[C@H](NC(=O)[C@@H](N)COP(=O)(O)O)C(=O)N[C@@H](CO)CC(=O)NCCC(=O)N[C@@H](Cc2ccc([N+](=O)[O-])cc2)C1=O [Macrocycle F1]
α1 (14-3-3/ChREBP complex; replicate 1): 82.8 | α1 (14-3-3/ChREBP complex; replicate 2): 85.4 | α (14-3-3/ChREBP complex; [5]): 314 | α (14-3-3/ChREBP complex; [6]): 363 | cooperativity (α) factor (14-3-3/ChREBP complex): 339 ± 35

NCCCC[C@@H](C(=O)NCCC(=O)N[C@@H](CCCCNC(=S)Nc1ccc2c(c1)C(=O)OC21c2ccc(O)cc2Oc2cc(O)ccc21)C(N)=O)N1CCCCc2cn(nn2)-c2ccc(cc2)C[C@H](NC(=O)[C@@H](N)COP(=O)(O)O)C(=O)N[C@@H](CO)CC(=O)NCCC(=O)N[C@@H](Cc2ccc([N+](=O)[O-])cc2)C1=O [Macrocycle F4]
cooperativity (α) factor (14-3-3/ChREBP complex): 42 ± 1 | EC50 (14-3-3β): 2000 nM

Ac-RDKIRLNNAIWRAWYIQYVKRRKSPV-NH2 [ChREBP, acetylated ChREBP peptide purchased from GenScript, 14-3-3 client peptide]
effect of client peptide on 14-3-3β/macrocycle complex [3]: Stabilization

NCCCC[C@@H](C(=O)NCCC(=O)N[C@@H](CCCCNC(=S)Nc1ccc2c(c1)C(=O)OC21c2ccc(O)cc2Oc2cc(O)ccc21)C(N)=O)N1CCc2cn(nn2)-c2ccc(cc2)C[C@H](NC(=O)[C@@H](N)COP(=O)(O)O)C(=O)N[C@@H](CO)CC(=O)NCCC(=O)N[C@@H](Cc2ccc([N+](=O)[O-])cc2)C1=O [Macrocycle F2]
EC50 (14-3-3β): 7000 nM

NCCCC[C@@H](C(=O)NCCC(=O)N[C@@H](CCCCNC(=S)Nc1ccc2c(c1)C(=O)OC21c2ccc(O)cc2Oc2cc(O)ccc21)C(N)=O)N1CCCc2cn(nn2)-c2ccc(cc2)C[C@H](NC(=O)[C@@H](N)COP(=O)(O)O)C(=O)N[C@@H](CO)CC(=O)NCCC(=O)N[C@@H](Cc2ccc([N+](=O)[O-])cc2)C1=O [Macrocycle F3]
cooperativity (α) factor (14-3-3/ChREBP complex): 12 ± 1 | Kd (14-3-3γ [4]): 230 ± 60 nM

NCCCC[C@@H](C(N)=O)N1CCCc2cn(nn2)-c2ccc(cc2)C[C@H](NC(=O)[C@@H](N)COP(=O)(O)O)C(=O)N[C@@H](CO)CC(=O)NCCC(=O)N[C@@H](Cc2ccc([N+](=O)[O-])cc2)C1=O [Macrocycle 3]
α1 (14-3-3/ChREBP complex; replicate 1): 11.7 | α1 (14-3-3/ChREBP complex; replicate 2): 11 | α (14-3-3/ChREBP complex; [5]): 12.3 | α (14-3-3/ChREBP complex; [6]): 11 | Kd (14-3-3γ [1]; KD, kinetic fit, SPR, 1:1 model, 25 °C, pH 7.4, average ± SD, n=2, SD): 230 nM | KD, affinity fit (14-3-3γ [1]; 25 °C, pH 7.4, replicate 1): 228 nM | KD, affinity fit (14-3-3γ [1]; 25 °C, pH 7.4, replicate 2): 253 nM | ka, kinetic fit (14-3-3γ [1]; [7]): 629000 M⁻¹ s⁻¹ | kd, kinetic fit (14-3-3γ [1]; [8]): 0.13 ± 0.01 s⁻¹ | KD, kinetic fit (14-3-3γ [1]; [9]): 220 nM | kd, kinetic fit (14-3-3γ [1]; [9]): 0.1384 s⁻¹ | KD, kinetic fit (14-3-3γ [1]; [10]): 233 nM | ka, kinetic fit (14-3-3γ [1]; [10]): 556000 M⁻¹ s⁻¹ | kd, kinetic fit (14-3-3γ [1]; [10]): 0.1296 s⁻¹ | kon (14-3-3γ [1]; SD): 590000 M⁻¹ s⁻¹ | ΔS (14-3-3γ [2]): 5.9 ± 0.89 cal/(mol·K) | ΔG (14-3-3γ [2]): -9.24 ± 0.028 kcal/mol | ΔH (14-3-3γ [2]): -7.5 ± 0.70 kcal/mol
